Laboratory results published in ChEMBL document CHEMBL1201862, “PubChem BioAssay data set” (2004).
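Five concentrations, 48 hours, 96-well plates. GI50 marks 50% less growth.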 Active and inactive are the calls of the source. Cut-off read from the data, not from the text of the source: active = GI50 up to about 1.1 µM and inactive = higher.

Key:
Assay in all cases: inhibition of tumour cell growth, NCI panel, 48 h
786-0 = system: 786-0
A549 = system: A549
ACHN = system: ACHN
BT-549 = system: BT-549
CAKI-1 = system: CAKI-1
CCRF-CEM = system: CCRF-CEM
COLO 205 = system: COLO 205
DU-145 = system: DU-145
EKVX = system: EKVX
HCC 2998 = system: HCC 2998
HCT-116 = system: HCT-116
HCT-15 = system: HCT-15
HL-60 = system: HL-60
HOP-62 = system: HOP-62
HOP-92 = system: HOP-92
HT-29 = system: HT-29
Hs-578T = system: Hs-578T
IGROV-1 = system: IGROV-1
K562 = system: K562
KM12 = system: KM12
LOX IMVI = system: LOX IMVI
M14 = system: M14
MCF7 = system: MCF7
MDA-MB-231 = system: MDA-MB-231
MDA-MB-435 = system: MDA-MB-435
MDA-N = system: MDA-N
MOLT-4 = system: MOLT-4
Malme-3M = system: Malme-3M
NCI-H226 = system: NCI-H226
NCI-H23 = system: NCI-H23
NCI-H460 = system: NCI-H460
NCI-H522 = system: NCI-H522
NCI/ADR-RES = system: NCI/ADR-RES
OVCAR-3 = system: OVCAR-3
OVCAR-4 = system: OVCAR-4
OVCAR-5 = system: OVCAR-5
OVCAR-8 = system: OVCAR-8
PC-3 = system: PC-3
RPMI-8226 = system: RPMI-8226
RXF 393 = system: RXF 393
SF-268 = system: SF-268
SF-295 = system: SF-295
SF-539 = system: SF-539
SK-MEL-28 = system: SK-MEL-28
SK-MEL-2 = system: SK-MEL-2
SK-MEL-5 = system: SK-MEL-5
SK-OV-3 = system: SK-OV-3
SN12C = system: SN12C
SNB-19 = system: SNB-19
SNB-75 = system: SNB-75
SR = system: SR
SW-620 = system: SW-620
T47D = system: T47D
TK-10 = system: TK-10
U-251 = system: U-251
UACC-257 = system: UACC-257
UACC-62 = system: UACC-62
A498 = system: A498
UO-31 = system: UO-31

Measured: GI50

COc1cc(C2SC(=N)Nc3c2c(C)nn3C(=O)c2ccc(Cl)cc2)ccc1O (stereo not given)
active: MDA-N 0.236 µM
inactive: 786-0 > 10 µM | A549 > 10 µM | ACHN > 10 µM | BT-549 > 10 µM | CAKI-1 > 10 µM | CCRF-CEM > 10 µM | COLO 205 > 10 µM | DU-145 > 10 µM | EKVX > 10 µM | HCC 2998 > 10 µM | HCT-116 > 10 µM | HL-60 > 10 µM | HOP-62 > 10 µM | HOP-92 > 10 µM | HT-29 > 10 µM | Hs-578T > 10 µM | IGROV-1 > 10 µM | K562 > 10 µM | KM12 > 10 µM | LOX IMVI > 10 µM | M14 > 10 µM | MCF7 > 10 µM | MDA-MB-231 > 10 µM | MDA-MB-435 > 10 µM | MOLT-4 > 10 µM | Malme-3M > 10 µM | NCI-H226 > 10 µM | NCI-H23 > 10 µM | NCI-H460 > 10 µM | NCI-H522 > 10 µM | NCI/ADR-RES > 10 µM | OVCAR-3 > 10 µM | OVCAR-4 > 10 µM | OVCAR-5 > 10 µM | OVCAR-8 > 10 µM | PC-3 > 10 µM | RPMI-8226 > 10 µM | RXF 393 > 10 µM | SF-268 > 10 µM | SF-295 > 10 µM | SF-539 > 10 µM | SK-MEL-28 > 10 µM | SK-MEL-2 > 10 µM | SK-MEL-5 > 10 µM | SK-OV-3 > 10 µM | SN12C > 10 µM | SNB-19 > 10 µM | SNB-75 > 10 µM | SR > 10 µM | SW-620 > 10 µM | T47D > 10 µM | TK-10 > 10 µM | U-251 > 10 µM | UACC-257 > 10 µM | UACC-62 > 10 µM
> 10 µM: HCT-15

CCCCNS(=O)(=O)c1n[nH]c(=O)[nH]c1=O
inactive: 786-0 > 100 µM | A498 > 100 µM | A549 > 100 µM | ACHN > 100 µM | BT-549 > 100 µM | CAKI-1 > 100 µM | CCRF-CEM 14.1 µM | COLO 205 > 100 µM | DU-145 > 100 µM | EKVX > 100 µM | HCT-116 > 100 µM | HL-60 > 100 µM | HOP-62 23.5 µM | HT-29 > 100 µM | Hs-578T > 100 µM | IGROV-1 > 100 µM | K562 > 100 µM | KM12 > 100 µM | LOX IMVI > 100 µM | M14 > 100 µM | MCF7 > 100 µM | MDA-MB-231 > 100 µM | MDA-MB-435 > 100 µM | MDA-N > 100 µM | MOLT-4 > 100 µM | Malme-3M > 100 µM | NCI-H226 > 100 µM | NCI-H23 > 100 µM | NCI-H460 > 100 µM | NCI-H522 > 100 µM | NCI/ADR-RES > 100 µM | OVCAR-3 > 100 µM | OVCAR-4 > 100 µM | OVCAR-5 > 100 µM | OVCAR-8 > 100 µM | PC-3 > 100 µM | RPMI-8226 > 100 µM | RXF 393 > 100 µM | SF-268 > 100 µM | SF-295 16.9 µM | SF-539 > 100 µM | SK-MEL-28 > 100 µM | SK-MEL-2 > 100 µM | SK-MEL-5 > 100 µM | SK-OV-3 17.6 µM | SN12C > 100 µM | SNB-19 > 100 µM | SNB-75 82.6 µM | SR > 100 µM | SW-620 > 100 µM | T47D > 100 µM | U-251 > 100 µM | UACC-62 > 100 µM | UO-31 > 100 µM
> 100 µM: HCT-15

CC/C=C/C(/C=C/C[C@]1(CC)C[C@H](CC)[C@H](CC(=O)O)OO1)CC (stereo not given in full)
2.61 µM: HCT-15
active: CCRF-CEM 0.492 µM | IGROV-1 0.353 µM | LOX IMVI 0.33 µM | SR 0.421 µM | UO-31 0.494 µM
inactive: 786-0 1.67 µM | A498 14.3 µM | A549 1.68 µM | ACHN 1.91 µM | BT-549 6.28 µM | CAKI-1 1.96 µM | COLO 205 1.78 µM | DU-145 1.85 µM | EKVX 1.76 µM | HCT-116 2.46 µM | HL-60 2.16 µM | HOP-62 1.58 µM | HOP-92 1.99 µM | HT-29 1.84 µM | Hs-578T 1.91 µM | K562 3.04 µM | KM12 1.62 µM | M14 8.49 µM | MCF7 2.51 µM | MDA-MB-231 4.88 µM | MDA-MB-435 2.06 µM | MDA-N 1.85 µM | MOLT-4 2.31 µM | Malme-3M 12.4 µM | NCI-H226 20.8 µM | NCI-H23 2.24 µM | NCI-H460 1.96 µM | NCI-H522 1.75 µM | NCI/ADR-RES 2.1 µM | OVCAR-3 2 µM | OVCAR-4 1.52 µM | OVCAR-5 2.34 µM | OVCAR-8 2.9 µM | PC-3 1.67 µM | RPMI-8226 1.64 µM | RXF 393 2.19 µM | SF-268 3.58 µM | SF-295 2.16 µM | SF-539 1.82 µM | SK-MEL-28 2.23 µM | SK-MEL-2 4.01 µM | SK-MEL-5 2.85 µM | SK-OV-3 4.23 µM | SN12C 5.65 µM | SNB-19 5.69 µM | SNB-75 6.41 µM | SW-620 2.12 µM | T47D 2.75 µM | TK-10 1.91 µM | U-251 1.62 µM | UACC-257 14.5 µM | UACC-62 5.94 µM

NC(=O)c1cc2ccccc2o/c1=N/O
inactive: 786-0 > 100 µM | A549 78.5 µM | ACHN > 100 µM | BT-549 > 100 µM | CAKI-1 27.9 µM | CCRF-CEM > 100 µM | COLO 205 > 100 µM | DU-145 > 100 µM | EKVX 32.2 µM | HCC 2998 > 100 µM | HCT-116 > 100 µM | HL-60 75.2 µM | HOP-62 > 100 µM | HOP-92 > 100 µM | HT-29 > 100 µM | Hs-578T 26.2 µM | IGROV-1 66.1 µM | K562 > 100 µM | KM12 > 100 µM | LOX IMVI > 100 µM | M14 > 100 µM | MCF7 29.2 µM | MDA-MB-231 > 100 µM | MDA-MB-435 54.1 µM | MDA-N > 100 µM | MOLT-4 > 100 µM | NCI-H226 > 100 µM | NCI-H23 > 100 µM | NCI-H460 > 100 µM | NCI-H522 61.4 µM | NCI/ADR-RES > 100 µM | OVCAR-3 > 100 µM | OVCAR-8 > 100 µM | PC-3 > 100 µM | RPMI-8226 > 100 µM | RXF 393 > 100 µM | SF-268 > 100 µM | SF-295 > 100 µM | SF-539 > 100 µM | SK-MEL-28 > 100 µM | SK-MEL-2 > 100 µM | SK-MEL-5 > 100 µM | SK-OV-3 > 100 µM | SN12C > 100 µM | SNB-19 > 100 µM | SNB-75 > 100 µM | SR > 100 µM | SW-620 > 100 µM | T47D > 100 µM | TK-10 > 100 µM | U-251 > 100 µM | UACC-257 > 100 µM | UACC-62 35.8 µM | UO-31 38.7 µM
> 100 µM: HCT-15

CC(=O)N1N=C(c2ccc3ccccc3c2O)CC1C(=O)c1ccco1 (stereo not given)
inactive: 786-0 45 µM | A498 29.7 µM | A549 27.9 µM | ACHN 19.2 µM | BT-549 30.3 µM | CAKI-1 44.1 µM | CCRF-CEM 6.24 µM | COLO 205 25.8 µM | DU-145 47.9 µM | HCC 2998 16.3 µM | HCT-116 28.6 µM | HOP-62 30.6 µM | HOP-92 16.6 µM | HT-29 22.8 µM | Hs-578T 21.8 µM | IGROV-1 12.7 µM | K562 11.6 µM | KM12 10.8 µM | M14 19.3 µM | MCF7 21.4 µM | MDA-MB-231 80.5 µM | MDA-MB-435 14.7 µM | MDA-N 20.6 µM | MOLT-4 5.62 µM | Malme-3M 23.2 µM | NCI-H226 33.7 µM | NCI-H23 27.9 µM | NCI-H460 15.3 µM | NCI-H522 17.9 µM | NCI/ADR-RES 18.1 µM | OVCAR-3 20.3 µM | OVCAR-4 17.5 µM | OVCAR-5 28.6 µM | OVCAR-8 25.5 µM | PC-3 22.5 µM | RPMI-8226 17.2 µM | RXF 393 32.4 µM | SF-268 14.4 µM | SF-295 24 µM | SF-539 26.1 µM | SK-MEL-28 37.8 µM | SK-MEL-2 18.7 µM | SK-MEL-5 25 µM | SK-OV-3 36.1 µM | SN12C 41.2 µM | SNB-75 14.3 µM | SR 3.78 µM | SW-620 33.3 µM | T47D 40.6 µM | TK-10 30.3 µM | U-251 27.7 µM | UACC-257 32.1 µM | UACC-62 17 µM | UO-31 23.1 µM
26.7 µM: HCT-15
